One data set concerns NCI-H1975. As to the kind of experiment: Cytotoxicity against human NCI-H1975 cells assessed as inhibition of cell growth incubated for 24 hrs by CCK-8 assay. To be noted: NCI-H1975, 24 h. Type of data set: functional, cell-based. (In general: Tetrazolium assays rely on reduction of a dye to a coloured formazan, in cell work by metabolically active cells.)
Data set [1] relates to RAW264.7. As to the kind of experiment: Antiinflammatory activity in LPS induced mouse RAW264.7 cells assessed as inhibition of NO production at 25 uM pretreated for 2 hrs followed by LPS stimulation and measured after 24 hrs by Griess reagent based assay relative to control. To be noted: time 26 hrs. The data set is classed as functional. Background: The Griess reaction detects nitrite, a stable product of nitric oxide.

In data set [2] the test system is RAW264.7. As to the kind of experiment: Antiinflammatory activity in LPS induced mouse RAW264.7 cells assessed as inhibition of NO production pretreated for 2 hrs followed by LPS stimulation and measured after 24 hrs by Griess reagent based assay. The data set is classed as functional, cell-based.
Data set [3] is described as follows: Cytotoxicity against mouse RAW264.7 cells assessed as reduction in cell viability incubated for 2 hrs by MTT assay. Type of data set: toxicity, cell-based.

In the case of `COc1ccc(-c2cc3c(c(=O)o2)C[C@H]2[C@@](C)(CC[C@@]45O[C@@](O)(OC4(C)C)[C@H](O)C[C@]25C)O3)cc1`, the IC50 with NCI-H1975 was greater than 80 µM. Moreover, the inhibition at 25 µM with RAW264.7 [1] amounted to 0%.

Take `COc1ccc(-c2cc3c(c(=O)o2)C[C@]2(O)[C@@]45CO[C@@H](CC4=O)C(C)(C)[C@]5(O)CC[C@@]2(C)O3)cc1OC`: the results for the IC50 with RAW264.7 [2] and in the data set on NCI-H1975 were 21 µM and greater than 80 µM, respectively. The CC50 at 2 h in data set [3] was greater than 50 µM. Also, the inhibition at 25 µM in the data set on RAW264.7 [1] came out at 62%.

For `COc1ccc(-c2cc3c(c(=O)o2)C[C@]24O[C@]25[C@H](C)C[C@@H](O)C(C)(C)[C@]5(O)CC[C@@]4(C)O3)cc1`, in the data set on NCI-H1975, the IC50 was greater than 80 µM. In addition, the inhibition at 25 µM in the data set on RAW264.7 [1] worked out at 6.3%.

As to `COc1ccc(-c2cc3c(c(=O)o2)C[C@]2(O)[C@@]4(C)[C@H](O)C[C@@H](OC(C)=O)C(C)(C)[C@]4(O)CC[C@@]2(C)O3)cc1`, in the data set with NCI-H1975, the IC50 is greater than 80 µM. Besides, the inhibition at 25 µM in the data set on RAW264.7 [1] turned out to be 2.5%.

`COc1cc(-c2cc3c(c(=O)o2)C[C@]2(O)[C@@]45CO[C@@H](CC4=O)C(C)(C)[C@]5(O)CC[C@@]2(C)O3)cc2c1OCO2`: the 50% inhibitory concentration (IC50) with NCI-H1975 was determined as 15 µM. Besides, in the data set with RAW264.7 [1], the inhibition at 25 µM stood at 11%.

As to `COc1cc(-c2cc3c(c(=O)o2)C[C@]2(O)[C@@]45CO[C@@H](CC4=O)C(C)(C)[C@]5(O)CC[C@@]2(C)O3)cc(OC)c1OC`, the IC50 in the data set on NCI-H1975 was greater than 80 µM. Further, the inhibition at 25 µM in the data set on RAW264.7 [1] was determined as 22%.

Take `COc1ccc(-c2cc3c(c(=O)o2)C[C@H]2[C@@](C)(CC[C@@]4(O)C(C)(C)C(=O)C=C[C@]24C)O3)cc1`: the IC50 with NCI-H1975 was greater than 80 µM. Besides, in the data set on RAW264.7 [1], the inhibition at 25 µM turned out to be 35%.

For `COc1ccc(-c2cc3c(c(=O)o2)C[C@]2(O)[C@@]45O[C@]4(CC[C@@]2(C)O3)C(C)(C)[C@H](O)C[C@H]5C)cc1`, the IC50 in the data set with NCI-H1975 is 67 µM. In addition, in the data set with RAW264.7 [1], the inhibition at 25 µM is 32%.

As for `COc1ccc(-c2cc3c(c(=O)o2)C[C@H]2[C@@](C)(CC[C@@]4(O)C(C)(C)OC(=O)[C@H](O)C[C@]24C)O3)cc1`, the IC50 in the data set on NCI-H1975 was greater than 80 µM. The inhibition at 25 µM with RAW264.7 [1] amounted to 7.6%.

Take `COc1ccc2c(c1)c(CC(=O)O)c(C)n2C(=O)c1ccc(Cl)cc1` [INDOMETHACIN]: the IC50 with RAW264.7 [2] was 24 µM. Further, in data set [3], the half-maximal cytotoxic concentration (CC50) at 2 h was greater than 50 µM. Further, in the data set with RAW264.7 [1], the inhibition at 25 µM turned out to be 57%.

As a reminder, the IC50 is the concentration needed to halve the response being measured. The inhibition is the drop in the measured response relative to a control, in per cent. As usually defined, the CC50 is the concentration that lowers cell viability or growth by half.

The values above are taken from ChEMBL document CHEMBL5385923, “HPPO-Derived Meroterpenoids from the Marine-Derived Fungus Penicillium sp. SCSIO 41691” (J Nat Prod, 2024).
